Assays:
[1] = Oral bioavailability in Sprague-Dawley rat at 10 mg/kg; type: ADME, organism-based; conditions: in vivo
[2] = Tmax in Sprague-Dawley rat at 10 mg/kg, po; type: ADME, organism-based; parameters: dose 10 mg/kg, route oral; conditions: in vivo
[3] = Cmax in Sprague-Dawley rat at 10 mg/kg, po; type: ADME, organism-based; parameters: dose 10 mg/kg, route oral; conditions: in vivo
[4] = AUC (0 to infinity) in Sprague-Dawley rat at 10 mg/kg, po; type: ADME, organism-based; parameters: time infinity, dose 10 mg/kg, route oral; conditions: plasma
[5] = Volume of distribution at steady state in Sprague-Dawley rat at 2 mg/kg, iv; type: ADME, organism-based; parameters: dose 2 mg/kg, route intravenous; conditions: in vivo, read-out: Vdss
[6] = Plasma concentration in Sprague-Dawley rat at 30 mg/kg, po at 4 hrs; type: ADME, organism-based; parameters: dose 30 mg/kg, route oral
[7] = Drug uptake in Sprague-Dawley rat CSF at 30 mg/kg, po at 4 hrs; type: ADME, organism-based; parameters: dose 30 mg/kg, route oral; conditions: cerebrospinal fluid, read-out: Drug uptake
[8] = in vitro; conditions: pig, LLC-PK1

| SMILES | bioavailability [1] [%] | Tmax [2] [h] | Cmax [3] [ng/mL] | AUC(0-inf) [4] [ng·h/mL] | Vd [5] [L/kg] | concentration at 4 h [6] [nM] | concentration at 4 h [7] [nM] | Papp at 2 h [8] [×10⁻⁶ cm/s] |
| --- | --- | --- | --- | --- | --- | --- | --- | --- |
| COCC(=O)N[C@@H](Cc1cccc(-c2nccs2)c1)[C@H](O)CN[C@H]1CC2(CCC2)Oc2ncc(CC(C)(C)C)cc21 | 120 | 3.33 | 1890 | 9030 | 2.19 | 3270 | 52 |  |
| COCC(=O)N[C@@H](Cc1ccc(F)c(-c2nccs2)c1)[C@H](O)CN[C@H]1CC2(CCC2)Oc2ncc(CC(C)(C)C)cc21 |  |  |  |  |  |  |  | 28 |
| COCC(=O)N[C@@H](Cc1cc(-c2nccs2)ccc1F)[C@H](O)CN[C@H]1CC2(CCC2)Oc2ncc(CC(C)(C)C)cc21 |  |  |  |  |  |  |  | 11 |
| COCC(=O)N[C@@H](Cc1cccc(-c2ccncc2)c1)[C@H](O)CN[C@H]1CC2(CCC2)Oc2ncc(CC(C)(C)C)cc21 |  |  |  |  |  |  |  | 22 |
| C#Cc1cccc(C[C@H](NC(=O)COC)[C@H](O)CN[C@H]2CC3(CCC3)Oc3ncc(CC(C)(C)C)cc32)c1 | 100 | 5.33 | 4860 | 24200 | 1.54 | 3540 | 78 |  |
